According to article PMC6282106, “Commercial drugs containing flavonoids are active in mice with malaria and in vitro against chloroquine-resistant Plasmodium falciparum” (Memórias do Instituto Oswaldo Cruz, 2018):
Converted amounts (≈) assume the structure as drawn. Like-named read-outs stand apart in the source and are kept apart here.

Legend:
[1] = tested on: Plasmodium berghei NK65; test: Antimalarial suppressive test in mice infected with P. berghei; conditions: for Activity in P. berghei-infected mice, in words: 50 mg/kg by oral route, Table IV experiment
[2] = tested on: BGM cell line
[3] = tested on: Plasmodium falciparum chloroquine-resistant clone (W2); test: microbe, parasite or virus in culture; format: cell-based; conditions: for In vitro activity against P. falciparum, in words: P. falciparum W2; for IC50: Plasmodium falciparum, W2, P. falciparum W2, anti-HRPII test, read-out: IC50 (dose inhibiting 50% of parasite growth), mean ± SD
[4] = Table IV, 50 mg/kg oral, daily for three days
[5] = Table IV, 50 mg/kg oral, daily for three days, vs untreated controls
[6] = BGM cells, 24 h, MTT, mean of 3-5 experiments
[7] = Table V experiment, chloroquine 15 mg/kg
[8] = Table VI, chloroquine 1.25 mg/kg
[9] = Table VI, chloroquine 2.5 mg/kg
[10] = chloroquine at subcurative doses, dose not given
[11] = P. falciparum W2, anti-HRPII test, mean of 3-5 experiments

O=c1c(O)c(-c2ccc(O)c(O)c2)oc2cc(O)cc(O)c12 [Quercetin]
Activity in P. berghei-infected mice, in words [1]: best standard flavonoid | Survival (average ± SD) [1, 4]: 22 ± 6 | mean parasitaemia ± SD, 5th day [1, 4]: 4.7 ± 4.0 | mean parasitaemia ± SD, 7th day [1, 4]: 8.3 ± 5.1 | % Reduction of parasitaemia, 7th day [1, 5]: 44% | % Reduction of parasitaemia, 5th day ([1]; Table IV, 50 mg/kg oral, daily for three days, vs untreated controls, 50 mg/kg): 52% | MDL50 (minimum lethal dose for 50% of cells), mean ± SD [2, 6]: ≥ 1000 µg/mL | Selectivity index (SI) MDL50 / IC50 [3]: ≥ 76.9 | In vitro activity against P. falciparum, in words [3]: most active flavonoid | IC50 ([3]; mean of 3-5 experiments): 13 ± 8.4 µg/mL (≈ 43 µM)

Cc1cc2nc3c(=O)[nH]c(=O)nc-3n(C[C@H](O)[C@H](O)[C@H](O)CO)c2cc1C [Riboflavin]
MDL50 (minimum lethal dose for 50% of cells), mean ± SD [2, 6]: ≥ 1000 µg/mL | In vitro activity against P. falciparum, in words [3]: reduced the P. falciparum parasite growth | IC50 ([3]; mean of 3-5 experiments): 8.1 ± 4 µg/mL (≈ 21.5 µM)

CC(=O)Oc1c(C)c(C)c2c(c1C)CCC(C)(CCC[C@H](C)CCC[C@H](C)CCCC(C)C)O2 (stereo partly drawn) [Tocopherol acetate]
MDL50 (minimum lethal dose for 50% of cells), mean ± SD [2, 6]: ≥ 1000 µg/mL | Selectivity index (SI) MDL50 / IC50 [3]: Inactive | IC50 ([3]; mean of 3-5 experiments): ≥ 50 µg/mL

N[C@@H](CCC(=O)N[C@@H](CS)C(=O)NCC(=O)O)C(=O)O [L-Glutathione]
MDL50 (minimum lethal dose for 50% of cells), mean ± SD [2]: ≥ 1000 µg/mL | IC50 (dose inhibiting 50% of parasite growth), mean ± SD [3]: ≥ 50 µg/mL

O=C1O[C@H]([C@@H](O)CO)C(O)=C1O [Ascorbic acid]
IC50 ([3]; mean of 3-5 experiments): ≥ 50 µg/mL

CCN(CC)CCCC(C)Nc1ccnc2cc(Cl)ccc12 (stereo not drawn) [Chloroquine]
% Reduction of parasitaemia, 5th day ([1]; Table IV, chloroquine 20 mg/kg): 100% | % Reduction of parasitaemia, 7th day ([1]; Table IV, chloroquine 20 mg/kg): 100% | Survival (average ± SD) ([1]; Table IV, chloroquine 20 mg/kg): 24 ± 5 | mean parasitaemia ± SD, 5th day ([1]; Table IV, chloroquine 20 mg/kg): 0.0 ± 0.0 | mean parasitaemia ± SD, 7th day ([1]; Table IV, chloroquine 20 mg/kg): 0.0 ± 0.0 | % Reduction of parasitaemia, 7th day [1, 7]: 65% | Survival (average ± SD) [1, 7]: 24 ± 5 | mean parasitaemia ± SD, 5th day [1, 7]: 0.0 ± 0.0 | mean parasitaemia ± SD, 7th day [1, 7]: 2.9 ± 1.1 | % Reduction of parasitaemia, 5th day ([1]; Table V experiment, chloroquine 15 mg/kg, sub-curative): 100% | % Reduction of parasitaemia, 5th day [1, 8]: 93% | % Reduction of parasitaemia, 7th day [1, 8]: 49% | % Reduction of parasitaemia, 9th day [1, 8]: 56% | Survival (average ± SD) [1, 8]: 19 ± 4 | mean parasitaemia ± SD, 5th day [1, 8]: 0.1 ± 0.03% | mean parasitaemia ± SD, 7th day [1, 8]: 7.6 ± 3.3% | mean parasitaemia ± SD, 9th day [1, 8]: 5.1 ± 0.1% | % Reduction of parasitaemia, 5th day [1, 9]: 95% | % Reduction of parasitaemia, 7th day [1, 9]: 79% | % Reduction of parasitaemia, 9th day [1, 9]: 29% | Survival (average ± SD) [1, 9]: 20 ± 9 | mean parasitaemia ± SD, 5th day [1, 9]: 0.01 ± 0.1% | mean parasitaemia ± SD, 7th day [1, 9]: 3.1 ± 5.3% | mean parasitaemia ± SD, 9th day [1, 9]: 8.4 ± 4.5% | % Reduction of parasitaemia, 5th day ([1]; Table VI, chloroquine 5 mg/kg): 94% | % Reduction of parasitaemia, 7th day ([1]; Table VI, chloroquine 5 mg/kg): 69% | % Reduction of parasitaemia, 9th day ([1]; Table VI, chloroquine 5 mg/kg): 57% | Survival (average ± SD) ([1]; Table VI, chloroquine 5 mg/kg): 24 ± 4 | mean parasitaemia ± SD, 5th day ([1]; Table VI, chloroquine 5 mg/kg): 0.0 ± 0.1% | mean parasitaemia ± SD, 7th day ([1]; Table VI, chloroquine 5 mg/kg): 4.7 ± 4.0% | mean parasitaemia ± SD, 9th day ([1]; Table VI, chloroquine 5 mg/kg): 5.1 ± 3.1% | Reduction of parasitaemia, day 5 [1, 10]: 95% | Reduction of parasitaemia, day 7 [1, 10]: 79% | IC50 ([3]; mean of 3-5 experiments): 0.175 ± 0.02 µg/mL (≈ 0.547 µM)

[Se] [Selenium]
IC50 (dose inhibiting 50% of parasite growth), mean ± SD [3, 11]: ≥ 50 µg/mL

[O]=[Zn] [Zinc oxide]
MDL50 (minimum lethal dose for 50% of cells), mean ± SD [2, 6]: ≥ 1000 µg/mL | In vitro activity against P. falciparum, in words [3]: reduced the P. falciparum parasite growth | IC50 (dose inhibiting 50% of parasite growth), mean ± SD [3, 11]: 2.7 ± 1.4 µg/mL

O=c1c(-c2ccc(O)cc2)coc2cc(O)cc(O)c12 [Genistein]
MDL50 (minimum lethal dose for 50% of cells), mean ± SD [2, 6]: ≥ 1000 µg/mL | Selectivity index (SI) MDL50 / IC50 ([3]; BGM MDL50 / P. falciparum W2 IC50, toxicity considered at SI < 10): Inactive | In vitro activity against P. falciparum, in words [3]: no activity | IC50 (dose inhibiting 50% of parasite growth), mean ± SD [3, 11]: 28.8 ± 18.0 µg/mL | IC50 ([3]; mean of 3-5 experiments): > 25 µg/mL

CC(=O)N[C@@H](CS)C(=O)O [N-Acetylcysteine]
MDL50 (minimum lethal dose for 50% of cells), mean ± SD [2]: ≥ 1000 µg/mL | IC50 (dose inhibiting 50% of parasite growth), mean ± SD [3, 11]: ≥ 50 µg/mL

CC1=C(/C=C/C(C)=C/C=C/C(C)=C/C=C/C=C(C)/C=C/C=C(C)/C=C/C2=C(C)CCCC2(C)C)C(C)(C)CCC1 [Beta carotene]
MDL50 (minimum lethal dose for 50% of cells), mean ± SD [2, 6]: ≥ 1000 µg/mL | Selectivity index (SI) MDL50 / IC50 [3]: ≥ 71.4 | In vitro activity against P. falciparum, in words [3]: reduced the P. falciparum parasite growth | IC50 ([3]; mean of 3-5 experiments): 14 ± 3.1 µg/mL (≈ 26.1 µM)

COc1ccc([C@@H]2CC(=O)c3c(O)cc(O[C@@H]4O[C@H](CO[C@@H]5O[C@@H](C)[C@H](O)[C@@H](O)[C@H]5O)[C@@H](O)[C@H](O)[C@H]4O)cc3O2)cc1O [Hesperidin]
Activity in P. berghei-infected mice, in words [1]: slightly active | Survival (average ± SD) [1, 4]: 20 ± 3 | mean parasitaemia ± SD, 5th day [1, 4]: 5.2 ± 0.8 | mean parasitaemia ± SD, 7th day [1, 4]: 9.1 ± 1.3 | % Reduction of parasitaemia, 5th day [1, 5]: 47% | % Reduction of parasitaemia, 7th day [1, 5]: 38% | MDL50 (minimum lethal dose for 50% of cells), mean ± SD [2, 6]: ≥ 1000 µg/mL | In vitro activity against P. falciparum, in words [3]: no activity | IC50 (dose inhibiting 50% of parasite growth), mean ± SD [3, 11]: ≥ 50 µg/mL | IC50 (dose inhibiting 50% of parasite growth), mean ± SD ([3]; P. falciparum W2, anti-HRPII test, mean of 3-5 experiments, listed as hesperidin): > 25 µg/mL
